According to patent publication US11505528B2, “Inhibitors of microbially induced amyloid” (Axial Therapeutics, Inc., priority 2017, dated 2022):
Entries after “also recorded” stand apart in the source; their conditions may differ. Read-outs that look alike come from different tables or passages of the source.

What was measured:
[1] = tested on: Thy1-αSyn mice (ASO) mono-colonized with WT E. coli; assay: Motor function of germ-free Thy1-αSyn (ASO) mice mono-colonized with WT E. coli, EGCG in drinking water; type: in vivo
αSyn aggregates = αSyn aggregates in brain of ASO mice mono-colonized with WT E. coli, EGCG in drinking water; type: in vivo
E. coli CsgA = target: T1, E. coli CsgA (Escherichia coli, UniProt P28307); assay: Thioflavin T cell-free assay of CsgA aggregation; type: biochemical
T1 construct: 6xHis (C); made in house; host or cells: E. coli NEB 3016 slyD::kan
T1 sequence (P28307 23-151): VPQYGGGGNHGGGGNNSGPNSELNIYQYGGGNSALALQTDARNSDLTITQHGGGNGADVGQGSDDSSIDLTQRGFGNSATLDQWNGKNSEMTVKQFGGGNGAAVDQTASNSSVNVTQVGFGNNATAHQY

[2] = target: T2, α-synuclein seeded by E. coli CsgA (Homo sapiens, UniProt P37840); assay: Thioflavin T cell-free assay of CsgA-seeded α-synuclein aggregation; type: biochemical
T2 construct: the full-length gene for untagged human α-synuclein was inserted; made in house; host or cells: α-synuclein: E. coli BL21 (DE3); CsgA: E. coli NEB 3016 slyD::kan

human α-synuclein = target: T3, human α-synuclein (Homo sapiens, UniProt P37840); assay: Thioflavin T cell-free assay of α-synuclein aggregation; type: biochemical; conditions: α-synuclein 50 μM, compounds at 20-50 μM, data from 36 hours
T3 construct: the full-length gene for untagged human α-synuclein was inserted; made in house; host or cells: E. coli BL21 (DE3)

[3] = 15-16 weeks of age, EGCG ad lib in drinking water, vs vehicle treated control

Compound: O=C(O[C@@H]1Cc2c(O)cc(O)cc2O[C@@H]1c1cc(O)c(O)c(O)c1)c1cc(O)c(O)c(O)c1 [EGCG, epigallocatechin gallate]
- beam traversal time (time to cross) [1, 3]: lower
- hindlimb clasping score [1, 3]: lower
- nasal adhesive removal time (time to remove) [1, 3]: lower
- pole descent time (time to descent) [1, 3]: lower
- wire hang test (time to fall) [1, 3]: higher
- progressive motor deficits exacerbated by E. coli ([1]; assessment of motor performance, EGCG treatment): dampens
- αSyn aggregation in the striatum and midbrain (αSyn aggregates; EGCG treatment): preventing
- Proteinase K resistant αSyn aggregates in the substantia nigra (αSyn aggregates; immunofluorescence microscopy, EGCG-treated vs vehicle/untreated controls): lower; also recorded: Fewer

Compound: O=C(Nc1cccc(O)c1)c1c[nH]c2cc(O)c(O)c(O)c2c1=O [Compound 32, 5,6,7-trihydroxy-N-(3-hydroxyphenyl)-4-oxo-1,4-dihydroquinoline-3-carboxamide]
- inhibition at 20 µM (E. coli CsgA; read-out: Inhibition of Aggregation, CsgA): 53%
- inhibition at 20 µM (E. coli CsgA; read-out: Inhibition of Aggregation, CsgA (compound activity range)): 30 to 60%
- inhibition at 50 µM ([2]; read-out: Inhibition of Aggregation, CsgA-seeded αSyn): > 90%
- inhibition at 50 µM ([2]; read-out: Inhibition of Aggregation, CsgA-seeded αSyn (compound activity range)): > 60%
- Inhibition of Aggregation, αSyn (human α-synuclein; ThT fluorescence, negative = potentiation): 48%
- Inhibition of Aggregation, αSyn (compound activity range) (human α-synuclein): (++) ((++) is between 30% to 60% inhibition)
